Results from patent publication US9725695B2, “Stem cell defined media for xeno-free and feeder free conditions and uses thereof” (The Regents of the University of California, priority 2010, dated 2017).

Experiments:
H-9s [1] = assay: H-9s concentration after 3 days in low protein formulation with different BME concentrations; assay type: cell-based, human; settings: 20 μM, low protein amount formulation, p<0.01, t-test
Excerpt: FIG. 7: H-9s concentration after 3 days of culture in low protein based formulation with different BME concentrations. Error bars were generated through independent quadruplicates.
Having a meticulous comparison between all RCCDs performed, it was noticed that BME concentration was different due to supplier differences. […] Still, considering that BME is not just an antioxidant but a denaturizing chemical as well, it is expected that this compound would have a greater effect on media formulated with low amount of proteins.
Astonishingly, BME is normally added and recommended in KSR based media and feeder free media like mTeSR1 and StemPro. However, the negative effect of this compound is probably buffered by the huge amount of proteins that these media got, around 10 grams per liter, while the invention provides at least 20 times less. This discovery represents a breakthrough in terms of what are the real needs of an ES cell, drastically changing the media and cell's environment.

H-9 cells [2] = assay: Kinetic growth of H-9 cells on feeders in PB12/RCCD media formulations (Integral, Px,max, μ) with Statistica effect/regression models; assay type: cell-based, human; settings: codified values
H-9 cells [3] = assay: as above; assay type: cell-based, human; design: Effect on Integral / Effect on μ: unit not given here; settings: for Effect on Integral / Effect on Px, max / Effect on μ: PB12, level −1 to +1 (ranges Table 2), least square method; for Regression coefficient (Linear), Px, max / Regression coefficient (Quadratic), Px, max / Regression coefficient (Linear), Integral: 1st RCCD, codified values; for Regression coefficient (Linear), Px, max / Regression coefficient (Quadratic), Px, max: R^2 = 80.0%; for Regression coefficient (Linear), Integral: R^2 = 86.4%
Excerpt: A Placket-Burman matrix of 12 independent conditions (PB12) was used (Table 1), according to the Design of Experiments (DOE) methodology for the screening of 8 factors (RODRIGUES & IEMMA, 2005). […] Since this first step, the PB12, is a screening step, whenever it was possible the concentration of the factor was set as zero. • Condition 0: represents the central condition of the DOE, being the mean value obtained from averaging the values for levels −1 and +1. In addition to the central condition, the “main” central condition is defined as a state when all factors are set to condition 0.
In total, 14 different conditions were examined: 12 related to the PB12 matrix, 1 related to the “main” central condition that was performed in quadruplicates for the error estimation and a control condition with KSR. The basal media was: a 1:1 mixture 1:1 of DMEM and Ham's F12 (DMEM/F12; Mediatech, Manassas, Va.; catalog number 10-092), 1% NEAA, 110 μM β-mercaptoethanol (BME; Sigma-Aldrich, St. Louis, Mo.; catalog number M7522), 50 μg/mL gentamicin sulfate (Mediatech, Manassas, Va.; catalog number 30-005-CR) and 8 ng/mL of FGF-2 (Peprotech, Rocky Hill, N.J.; catalog number 100-18B). FGF-2 was reconstituted in PBS at 100 ug/mL and was added to the media for a final concentration of 8 ng/mL at the start of the culture. During the culture period, additional FGF-2 (8 ng/mL) was added directly to the media on a daily basis.
Every 24 hours one well from each condition and 4 wells from the main central condition were enzymatic dissociated and counted with the help of an automatic counter (NucleoCounter NC-100), for an unbiased measure of cell growth. In that way, by the end of the 5 days, a kinetic curve was obtained for every single condition (FIG. 1). Readouts like integral of cells (integral; defined as area below the curve), maximum productivity (Px,max; defined as the highest value obtained from dividing cell number by time) or and specific global ( ) growth rate (or speed of cell growth obtained from the formula dX/dt=pX) were calculated in order to perform the statistics comparing all different curves (Table 3).
Through the estimation of the effects from the least square method and the calculation of the errors obtained by the replicates performed on the main central condition (formulation 13), “t” was calculated as the ratio of effect and error.
By comparing the calculated “t” value with “t” values from a Student's “t” distribution table for a bilateral distribution, the p-value was obtained for each parameter in every readout.
Aiming to understand better the contribution of each protein in the formulation of the media, an optimization step was performed using the Three-Variable Rotatable Central Composite Design (RCCD; Rodrigues and lemma, 2005). The concentration range of each supplement was the same as given in Table 2 for the PB12 design, with the same concentration for the level 0, −1, and +1 condition.
The basal media was: a 1:1 mixture 1:1 of DMEM and Ham's F12 (DMEM/F12; Mediatech, Manassas, Va.; catalog number 10-092), 1.5% NEAA, 8.46 mg/L citric acid, 0.89×10^−4 mM sodium selenite, 2 mM glutamine (total of 4.5 mM), BME 110 μM, gentamicin sulfate 50 μg/mL and 8 ng/mL of FGF-2.
As before, kinetics growth of H-9 cells were obtained and readouts like Integral and Px, max were calculated (Table 6).
Through the use of Statistica software (StatSoft, Tulsa, Okla.), a second order mathematical model was generated in order to evaluate the real contribution of each supplement (Table 7).

H-9s [4] = settings: extra amount of bicarbonate (2.4 g/L vs 1.2 g/L)
Description: A simple test was performed with KSR formulation, just changing basal media supplier and consequently just changing the amount of buffer.

wild-type iPS line [5] = assay: Feeder free 2-variable RCCD (Activin A, TGF-beta-1): self-renew (final cell growth achieved); assay type: cell-based; settings: first feeder-free 2-variable RCCD, R^2 = 90.3%, p < 0.1; for Self-renew regression Coefficient (Linear): linear term of coded variable; for Self-renew regression Coefficient (Quadratic): quadratic term of coded variable
Excerpt: (§1) Aiming to improve the efficacy of the media, stimulating other pathways, besides the FGF-path, were explored. The Nodal/Activin pathway is related to pluripotency/self-renew (XIAO, 2006), than the factors from TGF superfamily. Activin A (Peprotech, Rocky Hill, N.J.; catalog number 120-14E) and TGF-beta-1 (Peprotech, Rocky Hill, N.J.; catalog number 100-21C), were investigated in a 2-variable RCCD (Table 20).
(§2) In these experiments, a wild-type iPS line was used. In the same fashion as the feeder conditions, cells were homogenously inoculated in several plates in each different formulation. The main difference in this step was the readout analyzed. Kinetic growth were not obtained due to the problems related to managing several feeder-free plates. Thus, instead of calculating integral and Px,max, two other readouts were used. The first one was the final cell growth achieved, called here as self-renew and the other one was percent of pluripotency, obtained from FACs analyzes by the dual staining with SSEA-4 and Nanog.
Analyzing the model, it is clear that TGF-beta-1 and Activin A have similar parameters. Additionally, they got a negative interaction with each other; meaning that, from an optimization point of view, if one is raised the other should be diminished. Taking a look into the surface gives a better clue of the best regions.

wild-type iPS line [6] = assay: Feeder free 2-variable RCCD (Activin A, TGF-beta-1): percent of pluripotency, FACs dual staining SSEA-4 and Nanog; assay type: cell-based; settings: p>0.1
Excerpt: as §1, §2

[7] = RCCD for NEAA, citric acid and glutamine, R^2 = 89.5%
[8] = RCCD for NEAA, citric acid and glutamine, R^2 = 90.7%

## OCCS [BME, β-mercaptoethanol]
H-9s [1]
  effect on ES cell growth: statistically negative effect

## O=C(O)CC(O)(CC(=O)O)C(=O)O [Citric Acid, citric acid]
H-9 cells [2]; [7]
  Regression coefficient (Linear), Px, max: −0.0020
  Regression coefficient (Quadratic), Px, max: −0.0104
H-9 cells [2]; [8]
  Regression coefficient (Linear), Integral: 1.63
  Regression coefficient (Quadratic), Integral: −33.83
H-9 cells [3]
  Effect on Integral: 17.09
  Effect on Px, max: 0.0060
  Effect on μ: 0.0065

## NCCO [Etan., ethanolamine]
H-9 cells [3]
  Effect on Integral: −0.56
  Effect on Px, max: −0.0055
  Effect on μ: 0.0006

## NC(=O)CC[C@H](N)C(=O)O [Glut, glutamine]
H-9 cells [2]; [7]
  Regression coefficient (Linear), Px, max: −0.0010
  Regression coefficient (Quadratic), Px, max: −0.0050
H-9 cells [2]; [8]
  Regression coefficient (Linear), Integral: 2.10
  Regression coefficient (Quadratic), Integral: −10.20
H-9 cells [3]
  Effect on Integral: −39.15
  Effect on Px, max: −0.0088
  Effect on μ: 0.0023

## O=[Se]([O-])[O-].[Na+].[Na+] [Selenite, sodium selenite]
H-9 cells [3]
  Effect on Integral: 7.46
  Effect on Px, max: 0.0029
  Effect on μ: 0.0098

## O=C([O-])O.[Na+] [bicarbonate, sodium bicarbonate]
H-9s [4]
  cell growth with KSR formulation: perform better

## Activin A: Activin A (Peprotech), factor from TGF superfamily
wild-type iPS line [5]
  Self-renew regression Coefficient (Linear): −0.430
  Self-renew regression Coefficient (Quadratic): 0.798
wild-type iPS line [6]
  statistical relevance of model parameters for pluripotency: no parameters either related to Activin A or TGF-beta-1 that were statistically relevant

## IGF-1
H-9 cells [2]; 1st RCCD, R^2 = 86.4%
  Regression coefficient (Quadratic), Integral: −1.19
H-9 cells [2]; 2nd RCCD, R^2 = 37.9%
  Regression coefficient (Linear), Px, max: 0.0021
  Regression coefficient (Quadratic), Px, max: −0.0011
H-9 cells [2]; 2nd RCCD, R^2 = 62.7%
  Regression coefficient (Linear), Integral: 17.03
  Regression coefficient (Quadratic), Integral: −4.60
H-9 cells [2]; 3rd RCCD, R^2 = 65.8%
  Regression coefficient (Linear), Integral: 0.24
  Regression coefficient (Quadratic), Integral: 7.12
H-9 cells [2]; 3rd RCCD, R^2 = 86.4%
  Regression coefficient (Linear), Px, max: 0.0003
  Regression coefficient (Quadratic), Px, max: 0.0041
H-9 cells [2]; 4th RCCD, R^2 = 69.0%
  Regression coefficient (Linear), Px, max: 0.0028
  Regression coefficient (Quadratic), Px, max: 0.0046
H-9 cells [2]; 4th RCCD, R^2 = […]
  Regression coefficient (Linear), Integral: 3.10
  Regression coefficient (Quadratic), Integral: 10.30
H-9 cells [3]
  Regression coefficient (Linear), Px, max: 0.0121
  Regression coefficient (Quadratic), Px, max: −0.0036
  Regression coefficient (Linear), Integral: 42.99
  Effect on Integral: 97.69
  Effect on Px, max: 0.0292
  Effect on μ: 0.0027

## TGF-beta-1: TGF-beta-1 (Peprotech), factor from TGF superfamily
wild-type iPS line [6]
  statistical relevance of model parameters for pluripotency: no parameters either related to Activin A or TGF-beta-1 that were statistically relevant

## TGF-β-1
wild-type iPS line [5]
  Self-renew regression Coefficient (Linear): −0.508
  Self-renew regression Coefficient (Quadratic): 0.936

## Transf.: CellPrime rTransferrin AF recombinant human transferrin (Millipore)
H-9 cells [2]; 1st RCCD, R^2 = 86.4%
  Regression coefficient (Quadratic), Integral: 4.06
H-9 cells [2]; 2nd RCCD, R^2 = 37.9%
  Regression coefficient (Linear), Px, max: 0.0027
  Regression coefficient (Quadratic), Px, max: −0.0014
H-9 cells [2]; 2nd RCCD, R^2 = 62.7%
  Regression coefficient (Linear), Integral: 18.70
  Regression coefficient (Quadratic), Integral: 5.70
H-9 cells [2]; 3rd RCCD, R^2 = 65.8%
  Regression coefficient (Linear), Integral: 4.61
  Regression coefficient (Quadratic), Integral: 3.59
H-9 cells [2]; 3rd RCCD, R^2 = 86.4%
  Regression coefficient (Linear), Px, max: 0.0013
  Regression coefficient (Quadratic), Px, max: 0.0018
H-9 cells [2]; 4th RCCD, R^2 = 69.0%
  Regression coefficient (Linear), Px, max: 0.0021
  Regression coefficient (Quadratic), Px, max: −0.0034
H-9 cells [2]; 4th RCCD, R^2 = […]
  Regression coefficient (Linear), Integral: 1.17
  Regression coefficient (Quadratic), Integral: −14.34
H-9 cells [3]
  Regression coefficient (Linear), Px, max: 0.0107
  Regression coefficient (Quadratic), Px, max: 0.0028
  Regression coefficient (Linear), Integral: 43.29
  Effect on Integral: 65.44
  Effect on Px, max: 0.0189
  Effect on μ: 0.0169
